# Laboratory results: publication PMC6843786, “Temporin-SHa and Its Analogs as Potential Candidates for the Treatment of Helicobacter pylori” (Biomolecules, 2019)
# “Also recorded” adds a separate entry of the source. Non-standard residues stand in square brackets, D forms with d. Residues, ends and D or L forms follow the SMILES beside them.
# Legend:
# [1] = test system: H. pylori (ATCC 43504)
# Description: (§1) Briefly, after the growth of H. pylori in liquid culture the optical density (OD) of the bacterial suspensions were read at 600 nm and adjusted to one. Stock solutions of the peptides at 1 mM were prepared in sterile water. Bacteria were diluted in medium to reach bacterial density around 10^5 bacteria/mL. One-hundred microliters per well of bacterial suspension were then added into sterile polypropylene 96-well microplates (Greiner BioOne, Paris, France) and exposed to increasing concentrations of peptides (from zero to 100 µM, 1:2 serial dilution). […] Plates were incubated at 37 °C for 24 h for H. pylori (ATCC 43504) and for 4–7 days for the clinical strains. H. pylori was tested in microaerophilic conditions generated using micro-anaerobic BD GasPak system. At the end of the incubation, OD600nm was measured using microplate reader (Synergy Mx, Biotek, Colmar, France). The MIC was defined as the lowest concentration of drug that inhibited visible growth of the organism. Experiments were conducted in independent triplicate (n = 3).
# (§2) It is also rich with mucus to protect it from the aggressive acidity. For this reason, the impact of mucins and pepsin on the activity of the peptides was investigated. The impact of the gastric mucins on peptide activity was evaluated using a combination of commercial porcine stomach mucins MUC2 and MUC3 (Sigma–Aldrich) at a final concentration of 1 mg/mL sterilized using 0.2 µm filter. This concentration was used based on the estimated concentration of mucins present in the mucus in vivo [27]. The effect of mucins on peptides activity was evaluated by MIC and by time killing assay as explained below. The resistance of the peptides to pepsin was tested as previously described with some changes. […] This concentration was used since it corresponds the pepsin concentration in the stomach (0.5–1 mg/mL).
# [2] = test system: H. pylori (ATCC 43504); assay: MIC after digestion by pepsin (resistance to pepsin)
# Description: as §1, §2
structure (smiles),measurement,setting,value
"CC[C@H](C)[C@H](NC(=O)CNC(=O)[C@H](CO)NC(=O)[C@H](CC(C)C)NC(=O)[C@@H](N)Cc1ccccc1)C(=O)N[C@H](C(=O)NCC(=O)N[C@@H](CCSC)C(=O)N[C@@H](CC(C)C)C(=O)N[C@H](C)C(=O)N[C@@H](CCCCN)C(=O)N[C@@H](CC(C)C)C(=O)N[C@@H](Cc1ccccc1)C(N)=O)C(C)C [NST1, H-Phe^1-Leu^2-Ser^3-Gly^4-Ile^5-Val^6-Gly^7-Met^8-Leu^9-D-Ala^10-Lys^11-Leu^12-Phe^13-NH2] (H-FLSGIVGML[dA]KLF-NH2)",increase of MIC in the presence of mucins,[1]; MUC2 and MUC3 at 1 mg/mL versus no mucins,two
same,MIC in the Presence of mucins,[1]; porcine gastric mucins MUC2 and MUC3 at 1 mg/mL,3.12 µM
same,MIC after Digestion by Pepsin,[2]; 4 h at 37 °C with pepsin 1 mg/mL in HCl pH 2,25 µM
same,resistance to pepsin (in words),"[2]; 4 h at 37 °C with pepsin 1 mg/mL, HCl pH 2",partial resistance towards pepsin; also recorded: partial resistance to the digestion by pepsin
